Reference: PubChem BioAssay (NCI)
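All cell lines were grown in 96-well plates and treated with compound for 48 hours. GI50 marks 50% less growth. At the TGI there is no net growth.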

What was measured:
Experiment in all cases: growth of human tumour cells (NCI), 48 h
A498 renal = test system: A498 renal
MDA-N = test system: MDA-N
A549 NSCLC = test system: A549 NSCLC
HOP-92 NSCLC = test system: HOP-92 NSCLC
HOP-62 NSCLC = test system: HOP-62 NSCLC
NCI-H460 lung = test system: NCI-H460 lung
COLO 205 colon = test system: COLO 205 colon
UACC-257 melanoma = test system: UACC-257 melanoma
SK-MEL-5 melanoma = test system: SK-MEL-5 melanoma
RXF 393 renal = test system: RXF 393 renal
HCC-2998 colon = test system: HCC-2998 colon

Structure (SMILES) | TGI (A498 renal) [µM] | TGI (MDA-N) [µM] | TGI (A549 NSCLC) [µM] | TGI (HOP-92 NSCLC) [µM] | TGI (HOP-62 NSCLC) [µM] | TGI (NCI-H460 lung) [µM] | TGI (COLO 205 colon) [µM] | TGI (UACC-257 melanoma) [µM] | TGI (SK-MEL-5 melanoma) [µM] | TGI (RXF 393 renal) [µM] | TGI (HCC-2998 colon) [µM] | GI50 (HCC-2998 colon) [µM]
C[C@@H]1OC(=O)/C(=C\N(C)C)[C@H]2CC(=O)N(CCc3cn(S(=O)(=O)C(F)(F)F)c4ccccc34)C[C@H]12 | > 100 | > 100 | > 100 | > 100 | > 100 | > 100 | > 100 | > 100 | > 100 | > 100 | > 100 | 
Cn1cnc([N+](=O)[O-])c1Sc1nc(N)nc2c1ncn2Cc1ccccc1 | 68.3 | 44.9 | 84.8 | 35.9 | 55.4 | 34.7 | 32.1 | 30.1 | 41.2 | 43.7 | 29.4 | 
O=C1NN(c2ccccc2)C(=O)C2C3c4ccccc4C(c4ccccc43)C12 (centres undefined) | > 100 | > 100 | > 100 | > 100 | > 100 | > 100 | > 100 | > 100 | > 100 | > 100 | > 100 | 
CC(=O)OCc1cn(S(=O)(=O)c2ccc(C)cc2)cn1 | > 100 | 52.6 | > 100 | > 100 | > 100 | > 100 | > 100 |  | > 100 | > 100 | > 100 | 
O=C(/C(=C/c1cccs1)c1ccccc1)c1ccccc1 | > 100 | > 100 | > 100 | > 100 | 58.2 | > 100 | > 100 | > 100 | > 100 | 18.8 | > 100 | 
O=C(N/C(=C\c1ccccc1)C1Nc2ccccc2C(=O)O1)c1ccccc1 (centres undefined) | > 100 | 56.6 | > 100 | > 100 | 61.6 | 35.5 | 80.9 | 58.4 | 34.7 | 63 | 38.6 | 
Cc1cccc(NC(=S)N/N=C(/c2ccccc2)c2ccccn2)c1 | 13.7 | 20.8 | 14.3 | 15.7 | 17.5 | 8.91 | 12.8 | 1.57 | 7.18 | 13.2 | 19.7 | 
CC(=O)Nc1ccc(-c2nc3ccccc3s2)cc1O | > 100 | > 100 | > 100 | > 100 | > 100 | > 100 | > 100 | > 100 | 62.8 | > 100 | > 100 | 
CCOP(=O)(OCC)/C(C#N)=C/c1c(C)[nH]c2ccccc12 | > 100 | > 100 | > 100 | > 100 | > 100 | > 100 | > 100 | > 100 | > 100 | > 100 | > 100 | 
[N-]=[N+]=NC1=C(c2ccccc2)C(=O)c2cccc3cccc1c23 | 8.29 | > 100 | > 100 | 91.1 | 91.1 | 28.7 | > 100 | 29.2 | 18.1 | 60.6 | > 100 | 
COc1c(O)cc(C(=O)O[C@@H]2Cc3c(O)cc(O)cc3O[C@@H]2c2cc(O)c(O)c(O)c2)cc1O | > 100 | 58.4 | 51.2 | > 100 | 92.3 | 66.7 |  | > 100 | 44.3 | 37.2 | > 100 | 
CN(C)/C=N/S(=O)(=O)c1nn2c(C=O)c(-c3ccc(-c4ccc([N+](=O)[O-])cc4)o3)nc2s1 | 54.2 | 2.7 | > 32.8 | 8.12 | 27.7 | 8.42 |  | 24.3 | 16.3 | 5.04 | 14.7 | 
N/N=C(\C(=O)Nc1ccc([N+](=O)[O-])cc1)C(C1=Nc2cc([N+](=O)[O-])ccc2NC1)[N+](=O)[O-] (centres undefined) | > 100 | > 100 | > 100 | > 100 | > 100 | > 100 |  | > 100 | > 100 | > 100 | > 100 | 
CCN(CC)c1nc(N(C)C)c2cc(OC)ccc2n1 | > 100 | > 100 | > 100 | > 100 | > 100 | > 100 | 28.2 | 81.3 | 34.2 | > 100 | 46.4 | 
c1ccc2c(c1)C(=Nc1ccc(N=C3c4ccccc4-c4ccccc43)cc1)c1ccccc1-2 | > 100 | > 100 | > 100 | > 100 | > 100 | > 100 | > 100 | > 100 | > 100 | > 100 | > 100 | 
CC[C@@]1(O)C(=O)OCc2c1cc1n(c2=O)Cc2c-1nc1ccccc1c2/C=N\NC(=O)C(C)N (some centres undefined) | 1.03 | > 100 | > 26.5 | 7.7 | 16 | 4.47 | > 31.6 | 28.7 | 1.78 | 9.18 | > 21.1 | 
Cc1nc(C)c(N2CCN(C#N)CC2)c(=O)[nH]1 | > 100 | > 100 | > 100 | > 100 | > 100 | > 100 | > 100 | > 100 | > 100 | > 100 | > 100 | 
CC(C)=CCC[C@H](C)[C@H]1CC[C@@H](C)c2cc(O)c(C)cc21 | 30.7 | 32.1 | 32.6 | 32.2 | 35.6 | 33.7 | 34.3 | 31.7 | 30.4 | 42.2 | 33.7 | 
Cc1cc(-c2nc3cc(F)c(F)cc3s2)ccc1N | > 100 | > 100 | > 100 | > 100 | > 71.3 | > 100 | > 100 | > 100 | > 100 | > 100 | > 100 | 
COC(=O)CCC(=O)c1ccc2c(c1)CC1(C2)Cc2ccc3c(c2C1)CCCC3=O (centres undefined) | 82.8 | 47.9 | > 100 | 64.7 | 97.4 | > 100 | > 67.6 | 54.6 | 22.5 | 97.4 | > 93.9 | 
CCCCCCCCCCCCP(=O)(O)OCC(N)C(=O)O (centres undefined) | 70.6 | 55.4 | > 100 | 71.6 | 31.6 | 89.6 | > 100 | > 100 | > 100 | > 100 | > 100 | 
CC1(C)O[C@@H]2[C@@H]3OC(=O)C[C@@H]3[C@@H](COCc3ccccc3)[C@@H]2O1 | > 100 | > 100 | > 100 | > 100 | > 100 | > 100 | > 100 | > 100 | > 100 | > 100 | > 100 | 
O=C(O)c1cc(Sc2ccc([N+](=O)[O-])c(C(=O)O)c2)ccc1[N+](=O)[O-] | > 100 | > 100 | > 100 | > 100 | > 100 | > 100 | > 100 | > 100 | > 100 | > 100 | > 100 | > 100
CC(NC(=O)C(N)CC(=O)O)NC(=O)N1CCCC1 (centres undefined) | > 100 | > 100 | > 100 | > 100 | > 100 | > 100 | > 100 | > 100 | > 100 | > 100 | > 100 | 
CCCCCC(/C=N/N)C(O)(C(F)(F)F)C(F)(F)F (centres undefined) | 7.95 | > 10 | > 10 | 6.36 | > 10 | 8.03 | 3.4 | > 10 | 3.92 | > 10 | > 10 | 
CC1(C)OC(=S)N(c2ccccc2)C12C=Cc1cc3ccccc3cc1O2 (centres undefined) | > 100 | > 100 | > 100 | > 100 | > 100 | > 100 | > 100 | > 100 | > 100 | > 100 | > 100 | 
C[C@]12CCC(=O)C=C1CC[C@@H]1C2CC[C@]2(C)Nc3c(ncn3-c3ccc(F)cc3)CC12 (some centres undefined) | > 100 | 42.8 | > 100 | > 100 | > 100 | 57.4 | 38.4 | 66.2 | 29.7 | 30.6 | 88.8 | 
C=C(C(=O)O)[C@@H]1C[C@@H]2O[C@H]1CC(C)=CCC/C(C)=C/CC[C@@]2(C)O | > 100 | > 100 | > 100 | > 100 |  | > 100 | > 100 | > 100 | > 100 | > 100 | > 100 | 
COC(=O)c1scc(N)c1-n1ccc(=O)[nH]c1=O | > 100 | > 100 | > 100 | > 100 |  | > 100 | > 100 | > 100 | > 100 | > 100 | > 100 | 
CCNc1ncnc2n[nH]nc12 | > 100 | > 100 | > 100 | > 100 | > 100 |  | > 100 | > 100 | > 100 | > 100 | > 100 | 
